Source: BindingDB's records for patent US20230414632 (Centre National De La Recherche Scientifique, 2023)

target: Lysine--tRNA ligase (Homo sapiens, UniProt Q15046); assay: Homogeneous Time-Resolved Fluorescence Assay
Protocol: Homogeneous time-resolved fluorescence (HTRF) assays were performed in black, half-area, flat bottom, 96-well microplates (Costar #3694). Human mitochondrial LysRS with a C-terminal HA-tag (mLysRS-HA), diluted in HTRF buffer (10 mM Tris-HCl pH 7.5, 50 mM NaCl, 10 mM 2-mercaptoethanol, BSA at 1 mg/ml) was added (20 μl at a dimer concentration of 3.75 nM) in the wells of microplates placed on ice. Compounds of formula I or II (1 μl of a 10 mM solution in DMSO) were then added to the wells, and mixing was achieved by pipetting up and down 3-times 10 μl. After centrifugation at 900 g for 1 min at 4° C., plates were placed at 4° C. on thermal modules of an epMotion 5075 v automated pipetting system (Eppendorf). A 10 μl sample of IN-H6 diluted in HTRF buffer at a dimer concentration of 250 nM was added and mixing was achieved by pipetting up and down 3-times 15 μl. Incubation was conducted at 4° C. for 1 h. A 10 μl aliquot of a mix of antibodies prepared in HTRF buffer, directed to the His-tag, conjugated with Eu3+ cryptate (Cisbio #61HISKLB, 0.125 μl per test, prepared as recommended by the supplier), and to the HA-tag, conjugated with XL665 (Cisbio #610HAXLB, 0.375 μl per test, prepared as recommended by the supplier), was added and mixing was achieved by pipetting up and down 3-times 15 μl. Incubation was conducted at 4° C. for 30 min.

Chain of Lysine--tRNA ligase (Q15046 whole entry): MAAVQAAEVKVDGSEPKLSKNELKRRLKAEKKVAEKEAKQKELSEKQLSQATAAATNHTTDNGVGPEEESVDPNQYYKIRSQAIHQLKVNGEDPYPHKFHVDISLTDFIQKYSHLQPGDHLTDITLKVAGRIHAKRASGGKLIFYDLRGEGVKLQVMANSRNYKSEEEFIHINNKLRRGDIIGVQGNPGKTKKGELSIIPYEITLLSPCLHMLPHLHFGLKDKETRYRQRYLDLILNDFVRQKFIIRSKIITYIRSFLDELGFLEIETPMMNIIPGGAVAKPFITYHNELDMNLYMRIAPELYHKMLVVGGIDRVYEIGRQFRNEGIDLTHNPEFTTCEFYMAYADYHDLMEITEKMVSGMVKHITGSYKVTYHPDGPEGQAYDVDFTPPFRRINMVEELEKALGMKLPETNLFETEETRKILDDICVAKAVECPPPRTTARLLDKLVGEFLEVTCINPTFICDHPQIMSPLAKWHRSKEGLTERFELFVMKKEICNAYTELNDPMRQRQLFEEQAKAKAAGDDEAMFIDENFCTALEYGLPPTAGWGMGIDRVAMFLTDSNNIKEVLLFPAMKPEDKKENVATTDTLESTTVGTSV

Row | SMILES | IC50
1 | COC(=O)C1=C(C)NC(C)=C(C(=O)OC2CCCN(Cc3ccccc3)C2)C1c1cccc([N+](=O)[O-])c1 (stereo unspecified) [US20230414632, Compound I-f] | 450 µM
2 | CCOC(=O)C1=C(C)NC(C)=C(C(=O)OCC)C1c1ccccc1/C=C/C(=O)OC(C)(C)C [US20230414632, Compound I-a] | 65 µM
3 | COCCOC(=O)C1=C(C)NC(C)=C(C(=O)OC/C=C/c2ccccc2)C1c1cccc([N+](=O)[O-])c1 (stereo unspecified) [US20230414632, Compound I-b] | 400 µM
4 | COC(=O)C1=C(C)NC(C)=C(C(=O)OC(C)(C)CN(C)CCC(c2ccccc2)c2ccccc2)C1c1cccc([N+](=O)[O-])c1 (stereo unspecified) [US20230414632, Compound I-c] | 320 µM
5 | COC(=O)C1=C(C)NC(C)=C(C(=O)OCC(C)C)C1c1ccccc1[N+](=O)[O-] (stereo unspecified) [US20230414632, Compound I-e] | 450 µM
6 | COC(=O)C1=C(C)NC(C)=C(C(=O)OCCN2CCN(C(c3ccccc3)c3ccccc3)CC2)C1c1cccc([N+](=O)[O-])c1 (stereo unspecified) [US20230414632, Compound I-g] | 400 µM
